Data: ChEMBL document CHEMBL5214935, “Discovery of a potent M5 antagonist with improved clearance profile. Part 1: Piperidine amide-based antagonists” (Bioorg Med Chem Lett, 2022)
Positions count from the first letter of the chain named.

Tests used:
[1] = target: T1, Muscarinic acetylcholine receptor M5 (Homo sapiens, UniProt P08912); assay: Antagonist activity at human muscarinic M5 receptor expressed in CHO cells in the presence of acetylcholine by calcium mobilisation assay; assay type: functional, cell-based
T1 sequence (P08912 whole entry): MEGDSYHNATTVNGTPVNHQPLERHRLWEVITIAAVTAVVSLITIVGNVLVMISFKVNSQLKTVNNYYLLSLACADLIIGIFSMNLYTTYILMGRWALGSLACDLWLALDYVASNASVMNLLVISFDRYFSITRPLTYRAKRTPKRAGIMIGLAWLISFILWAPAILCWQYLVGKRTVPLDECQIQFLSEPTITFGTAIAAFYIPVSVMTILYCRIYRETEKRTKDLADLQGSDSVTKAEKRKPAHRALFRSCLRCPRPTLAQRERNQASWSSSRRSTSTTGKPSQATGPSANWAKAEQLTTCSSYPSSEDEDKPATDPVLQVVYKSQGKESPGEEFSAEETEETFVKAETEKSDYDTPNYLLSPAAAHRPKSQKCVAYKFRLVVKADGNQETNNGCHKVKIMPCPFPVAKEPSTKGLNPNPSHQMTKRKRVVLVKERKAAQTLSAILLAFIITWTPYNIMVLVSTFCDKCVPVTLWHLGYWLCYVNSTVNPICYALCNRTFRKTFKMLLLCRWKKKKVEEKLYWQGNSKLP

[2] = target: T2, Muscarinic acetylcholine receptor M1 (Homo sapiens, UniProt P11229); assay: Antagonist activity at human muscarinic M1 receptor; assay type: functional
T2 sequence (P11229 whole entry): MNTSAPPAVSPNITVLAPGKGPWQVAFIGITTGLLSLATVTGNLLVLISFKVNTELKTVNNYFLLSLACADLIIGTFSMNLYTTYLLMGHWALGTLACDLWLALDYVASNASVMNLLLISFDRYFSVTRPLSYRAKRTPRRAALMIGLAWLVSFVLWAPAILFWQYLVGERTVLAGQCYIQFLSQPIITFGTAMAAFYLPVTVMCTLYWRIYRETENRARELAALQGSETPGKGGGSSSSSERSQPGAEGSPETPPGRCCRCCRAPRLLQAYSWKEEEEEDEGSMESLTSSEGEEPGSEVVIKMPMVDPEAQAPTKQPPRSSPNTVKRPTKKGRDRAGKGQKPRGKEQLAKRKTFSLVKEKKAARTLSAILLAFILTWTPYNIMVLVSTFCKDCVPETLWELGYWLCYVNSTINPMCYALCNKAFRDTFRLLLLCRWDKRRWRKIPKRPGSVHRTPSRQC

[3] = Intrinsic clearance in rat; assay type: ADME
[4] = Intrinsic clearance in human; assay type: ADME
[5] = target: T3, Muscarinic acetylcholine receptor M5 (Homo sapiens) (UniProt P08912); assay: Antagonist activity at human muscarinic M5 receptor expressed in CHO cells assessed as minimal acetylcholine response by calcium mobilisation assay relative to control; assay type: functional, cell-based; set-up: concentration or dose not given beside the values
T3 sequence (whole entry): T1 sequence (P08912 whole entry)

[6] = target: T2, Muscarinic acetylcholine receptor M1; assay: Antagonist activity at human muscarinic M1 receptor expressed in CHO cells in the presence of acetylcholine by calcium mobilisation assay; assay type: functional, cell-based
[7] = Clearance in rat plasma; assay type: ADME, cell-free
[8] = Unbound fraction in rat brain; assay type: ADME, tissue-based
[9] = target: T4, Muscarinic acetylcholine receptor M1 (Homo sapiens) (UniProt P11229); assay: Antagonist activity at human muscarinic M1 receptor expressed in CHO cells assessed as minimal acetylcholine response by calcium mobilisation assay; assay type: functional, cell-based; set-up: scale not given: the % may be the effect or the level left
T4 sequence (whole entry): T2 sequence (P11229 whole entry)

[10] = Unbound fraction in rat plasma; assay type: ADME, cell-free
[11] = Elimination half life in rat; assay type: ADME; settings: in vivo, read-out: beta t1/2
[12] = target: T5, Muscarinic acetylcholine receptor M5 (Rattus norvegicus, UniProt P08911); assay: Antagonist activity at rat muscarinic M5 receptor; assay type: functional
T5 sequence (P08911 whole entry): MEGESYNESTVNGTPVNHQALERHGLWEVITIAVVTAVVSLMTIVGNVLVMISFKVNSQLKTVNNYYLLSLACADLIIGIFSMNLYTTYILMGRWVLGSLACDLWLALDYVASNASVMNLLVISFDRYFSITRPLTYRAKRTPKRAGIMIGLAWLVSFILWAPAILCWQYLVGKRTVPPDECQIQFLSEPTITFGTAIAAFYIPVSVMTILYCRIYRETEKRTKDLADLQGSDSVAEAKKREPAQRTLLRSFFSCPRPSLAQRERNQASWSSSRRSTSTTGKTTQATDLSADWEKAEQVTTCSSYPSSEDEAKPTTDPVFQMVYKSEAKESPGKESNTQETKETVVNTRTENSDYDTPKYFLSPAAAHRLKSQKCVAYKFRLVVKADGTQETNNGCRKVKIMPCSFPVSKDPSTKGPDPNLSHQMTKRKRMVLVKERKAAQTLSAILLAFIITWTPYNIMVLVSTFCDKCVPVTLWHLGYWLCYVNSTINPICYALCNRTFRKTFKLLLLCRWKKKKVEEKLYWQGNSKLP

[13] = Apparent permeability in MDCK-MDR1 cells; assay type: ADME, cell-based, Canis lupus familiaris; settings: dog
[14] = target: T6, Muscarinic acetylcholine receptor M1 (Rattus norvegicus) (UniProt P08482); assay: Antagonist activity at rat muscarinic M1 receptor expressed in CHO cells assessed as minimal acetylcholine response by calcium mobilisation assay relative to control; assay type: functional, cell-based; set-up: scale not given: the % may be the effect or the level left; settings: filed as antagonist
T6 sequence (whole entry): T2 sequence (P11229 whole entry) with A5V, T254S, P309S, R320K, A337G, I413V

[15] = Unbound fraction in human plasma; assay type: ADME, cell-free
[16] = tested on: P-glycoprotein (human); assay: Efflux ratio of permeability in MDCK-MDR1 cells expressing human P-glycoprotein; assay type: ADME, cell-based, Canis lupus familiaris; settings: dog
[17] = target: T7, Muscarinic acetylcholine receptor M5 (Rattus norvegicus) (UniProt P08911); assay: Antagonist activity at rat muscarinic M5 receptor assessed as minimal acetylcholine response relative to control; assay type: functional; set-up: scale not given: the % may be the effect or the level left; settings: filed as antagonist
T7 sequence (whole entry): T5 sequence (P08911 whole entry)

[18] = target: T8, Muscarinic acetylcholine receptor M1 (Rattus norvegicus, UniProt P08482); assay: Antagonist activity at rat muscarinic M1 receptor expressed in CHO cells in the presence of acetylcholine by calcium mobilisation assay; assay type: functional, cell-based
T8 sequence (P08482 whole entry): T2 sequence (P11229 whole entry) with A5V, T254S, P309S, R320K, A337G, I413V

[19] = Volume of distribution at steady state in rat; assay type: ADME; settings: in vivo, read-out: Vdss

| Structure (SMILES) | IC50 [1] [nM] | CLint scaled [3] [mL/min/kg] | CLint scaled [4] [mL/min/kg] | Activity ([5]; filed as antagonist) [%] | also measured |
| --- | --- | --- | --- | --- | --- |
| O=C(Nc1ccc2scnc2c1)C1CCN(S(=O)(=O)c2ccc(Cl)s2)CC1 | 2800 | – | – | – | IC50 [2]: > 10000 nM |
| O=C(Nc1ccc2scnc2c1)C1CCN(S(=O)(=O)c2ccc3ncsc3c2)CC1 | 266 | 81 | 36 | 2 | – |
| O=C(Nc1ccc2snnc2c1)C1CCN(S(=O)(=O)c2ccc3c(c2)CCO3)CC1 | 143 | 804 | 108 | 10 | – |
| Cc1ccc(S(=O)(=O)N2CCC(C(=O)Nc3ccc4scnc4c3)CC2)cn1 | – | 43 | 5 | 3 | – |
| Cc1nn(C)cc1S(=O)(=O)N1CCC(C(=O)Nc2ccc3scnc3c2)CC1 | – | 45 | 5 | 2 | IC50 [6]: > 10000 nM; clearance [7]: 11.1 mL/min/kg; fraction unbound [8]: 0.2; Activity [9]: 50%; Fu [10]: 0.03; half-life [11]: 1.43 h; IC50 [12]: 1330 nM; Papp [13]: 0.374 10^-6 cm/s; Activity [14]: 35%; Fu [15]: 0.14; efflux ratio [16]: 110; Activity [17]: 4%; IC50 [18]: > 10000 nM; Vd [19]: 0.61 L/kg |
| Cc1nc2cc(NC(=O)C3CCN(S(=O)(=O)c4ccc5c(c4)CCO5)CC3)ccc2s1 | 594 | 426 | 74 | 19 | – |
| O=C(Nc1ccc2scnc2c1)C1CCN(S(=O)(=O)c2ccc3ncccc3c2)CC1 | – | 212 | 20 | 2 | – |
| O=C(Nc1ccc2cccnc2c1)C1CCN(S(=O)(=O)c2ccc3c(c2)CCO3)CC1 | – | 740 | 99 | 3 | – |
| O=C(Nc1ccc2scnc2c1)C1CCN(S(=O)(=O)c2cccnc2)CC1 | 59 | 207 | 19 | 2 | – |
| O=C(Nc1ccc2scnc2c1)C1CCN(S(=O)(=O)c2ccc(Cl)nc2)CC1 | 168 | 62 | 21 | 3 | – |
| O=C(Nc1ccc2scnc2c1)C1CCN(S(=O)(=O)c2ccc3c(c2)CCO3)CC1 | – | 373 | – | – | IC50 [2]: 2140 nM; IC50 [12]: 249 nM |
| CN(C(=O)C1CCN(S(=O)(=O)c2ccc3c(c2)CCO3)CC1)c1ccc2scnc2c1 | – | – | – | – | Activity [5]: 51% |
| Cc1ncc(S(=O)(=O)N2CC[C@H](C(=O)Nc3ccc4scnc4c3)[C@@H](F)C2)s1 (racemic) | 13 | 81 | 6 | 2 | fraction unbound [8]: 0.06; Fu [10]: 0.007; Activity [14]: 3%; Fu [15]: 0.02; IC50 [18]: 300 nM |
| C[C@@H]1C[C@@H](C(=O)Nc2ccc3scnc3c2)CCN1S(=O)(=O)c1ccc2c(c1)CCO2 (racemic) | 94 | 520 | 114 | 3 | – |
| CC1COc2ccc(S(=O)(=O)N3CCC(C(=O)Nc4ccc5scnc5c4)CC3)cc21 (racemic) | 109 | 1020 | 263 | 3 | – |
| Cc1nn(C)cc1S(=O)(=O)N1CC[C@H](C(=O)Nc2ccc3scnc3c2)[C@@H](F)C1 (racemic) | 309 | 260 | 7 | 3 | IC50 [6]: > 10000 nM; fraction unbound [8]: 0.17; Activity [9]: 51%; Fu [10]: 0.02; IC50 [12]: 572 nM; Papp [13]: 0.431 10^-6 cm/s; Fu [15]: 0.26; efflux ratio [16]: 110; Activity [17]: 3% |
| Cn1ncc(S(=O)(=O)N2CC[C@H](C(=O)Nc3ccc4scnc4c3)[C@@H](F)C2)c1Cl (racemic) | 10 | 49 | 6 | 2 | fraction unbound [8]: 0.05; Fu [10]: 0.005; Activity [14]: 3%; Fu [15]: 0.02; IC50 [18]: 110 nM |
| C[C@H]1CN(S(=O)(=O)c2ccc3c(c2)CCO3)CC[C@@H]1C(=O)Nc1ccc2scnc2c1 (racemic) | 1530 | 506 | 79 | 3 | – |
| CC1Cc2cc(S(=O)(=O)N3CCC(C(=O)Nc4ccc5scnc5c4)CC3)ccc2O1 (racemic) | > 10000 | – | – | 16 | – |
| C[C@@H]1CN(S(=O)(=O)c2ccc3c(c2)CCO3)CC[C@@H]1C(=O)Nc1ccc2scnc2c1 (racemic) | 419 | 550 | 199 | 3 | – |
| C[C@@H]1C[C@H](C(=O)Nc2ccc3scnc3c2)CCN1S(=O)(=O)c1ccc2c(c1)CCO2 (racemic) | 134 | 572 | 264 | 2 | – |
